Publication PMC6559944 (Journal of medicinal chemistry, 2019)
Entries after “also recorded” stand apart in the source; their conditions may differ. Read-outs that look alike come from different tables or passages of the source.

Legend:
[1] = mice, 25 mg/kg PO, feces collected 24 h
[2] = test system: Nluc-expressing C. parvum; details: for Efficacy (reduction in oocyst shedding / infection), in words: oral, 5 days, doses of Table 3
[3] = mouse, in vivo, 25 mg/kg; for Half Life: po
[4] = mouse, in vivo
[5] = mouse, in vivo; remark: listed apart in the source
[6] = rat
[7] = test system: human ether-á-go-go related gene (hERG); details: cited from earlier work
[8] = IFN-γ KO mice, 60 mg/kg QD for 5 days

## CCOc1ccc2cc(-c3nn(C(C)(C)CO)c(N)c3C(N)=O)ccc2c1 [Compound 21, 5-amino-3-(6-ethoxynaphthalen-2-yl)-1-(1-hydroxy-2-methylpropan-2-yl)-1H-pyrazole-4-carboxamide]
[1]
  Fecal concentration from 25 mg/kg dose: 7.1 µM
[2]; IFN-γ KO mice
  Efficacy (reduction in oocyst shedding / infection), in words: failed to reduce infection; also recorded: Failed efficacy

## 5-amino-3-(2-cyclopropoxyquinolin-6-yl)-1-(4-hydroxybutan-2-yl)-1H-pyrazole-4-carboxamide [Compound 10]
[3]
  Oral Clearance: 0.1 mL/min
  Half Life: 2.047 h
[1]
  Fecal concentration from 25 mg/kg dose: 4.5 µM

## CC(CCO)n1nc(-c2ccc3cc(OC4CC4)ccc3c2)c(C(N)=O)c1N (centres unmarked) [Compound 12, 5-amino-3-(6-cyclopropoxynaphthalen-2-yl)-1-(4-hydroxybutan-2-yl)-1H-pyrazole-4-carboxamide]
[1]
  Fecal concentration from 25 mg/kg dose: 10.3 µM
[2]; IFN-γ KO mice efficacy study
  Liabilities: toxicity during efficacy study: Signs of toxicity during efficacy

## CCOc1ccc2cc(-c3nn(C(C)(C)CO)c(N)c3C(N)=O)ccc2n1 [Compound 20, 5-amino-3-(2-ethoxyquinolin-6-yl)-1-(1-hydroxy-2-methylpropan-2-yl)-1H-pyrazole-4-carboxamide]
[1]
  Fecal concentration from 25 mg/kg dose: 0.41 µM
[2]; IFN-γ KO mice, 10 mg/kg BID
  Efficacy in words: failed to provide a significant reduction from initial infection levels
[2]; IFN-γ KO mice, 20 mg/kg BID
  Efficacy in words: failed to provide a significant reduction from initial infection levels
[2]; [8]
  Efficacy in words: efficacious to the LLOD
[2]; IFN-γ KO mice
  Efficacy (reduction in oocyst shedding / infection), in words: significant reduction in oocyst shedding

## CCOc1ccc2cc(-c3nn(C(C)(C)CCO)c(N)c3C(N)=O)ccc2c1 [Compound 15, 5-amino-3-(6-ethoxynaphthalen-2-yl)-1-(4-hydroxy-2-methylbutan-2-yl)-1H-pyrazole-4-carboxamide]
[2]; IFN-γ KO mice, 5 mg/kg BID for 5 days
  Efficacy in words: failed to provide an efficacious result
[2]; IFN-γ KO mice, 15 mg/kg BID for 5 days
  Efficacy in words: failed to provide an efficacious result
[2]; IFN-γ KO mice, 30 mg/kg BID for 5 days, 30 mg/kg
  Efficacy in words: efficacious; also recorded: reductions to below the LLOD
[2]; IFN-γ KO mice, 60 mg/kg BID for 5 days
  Log reduction (to below the LLOD): 4 log
[2]; [8]
  Efficacy in words: failed to provide an efficacious result
[2]; IFN-γ KO mice, 120 mg/kg QD for 5 days
  Efficacy in words: reductions to below the LLOD
[2]; IFN-γ KO mice
  Efficacy (reduction in oocyst shedding / infection), in words: significant reduction in oocyst shedding
[4]
  CBC and serum chemistry results: within the normal range
  Histological analysis of all major organs: no abnormalities
[4]; 150 mg/kg
  Observable signs of toxicity: Neither dose concentration showed any observable signs of toxicity
Human cell lines
  Toxicity to human cell lines: not toxic to a variety of human cell lines

## CCOc1ccc2cc(-c3nn(CC(C)(C)CO)c(N)c3C(N)=O)ccc2c1 [Compound 3, 5-amino-3-(6-ethoxynaphthalen-2-yl)-1-(3-hydroxy-2,2-dimethylpropyl)-1H-pyraz-+ole-4-carboxamide]
[1]
  Fecal concentration from 25 mg/kg dose: 7.6 µM
[2]; IFN-γ KO mice
  Efficacy (reduction in oocyst shedding / infection), in words: failed to reduce infection; also recorded: Failed efficacy, low c-Src IC50

## CCOc1ccc2cc(-c3nn(C(C)CCO)c(N)c3C(N)=O)ccc2c1 (centres unmarked) [Compound 9, 5-amino-3-(6-ethoxynaphthalen-2-yl)-1-(4-hydroxybutan-2-yl)-1H-pyrazole-4-carboxamide]
[2]; IFN-γ KO mice, 30 mg/kg BID for 5 days
  Efficacy in words: remain a full log above the LLOD
[2]; [8]
  Efficacy in words: efficacious
[2]; IFN-γ KO mice
  Efficacy (reduction in oocyst shedding / infection), in words: significant reduction in oocyst shedding

## 5-amino-3-(7-cyclopropoxyquinolin-3-yl)-1-(4-hydroxybutan-2-yl)-1H-pyrazole-4-carboxamide [Compound 11]
[3]
  Oral Clearance: 0.7 mL/min
  Half Life: 1.42 h
[2]; IFN-γ KO mice
  Efficacy (reduction in oocyst shedding / infection), in words: significant reduction in oocyst shedding

## CCOc1ccc2cc(-c3nn(C(C)(C)CO)c(N)c3C(N)=O)cnc2c1 [Compound 19, 5-amino-3-(7-ethoxyquinolin-3-yl)-1-(1-hydroxy-2-methylpropan-2-yl)-1H-pyrazole-4-carboxamide]
[1]
  Fecal concentration from 25 mg/kg dose: 2.9 µM

## CC(C)(C)n1nc(-c2ccc3cc(OC4CC4)ccc3c2)c(C(N)=O)c1N [Compound 25, 5-amino-1-(tert-butyl)-3-(6-cyclopropoxynaphthalen-2-yl)-1H-pyrazole-4-carboxamide]
[1]
  Fecal concentration from 25 mg/kg dose: 0.42 µM
[2]; IFN-γ KO mice, 15 mg/kg QD for 5 days
  Efficacy in words: failed to reduce infections from their initial levels
[2]; IFN-γ KO mice, 30 mg/kg QD for 5 days
  Efficacy in words: reduced infection to below the LLOD
[2]; [8]
  Efficacy in words: efficacious
[2]; IFN-γ KO mice
  Efficacy (reduction in oocyst shedding / infection), in words: efficacious
[4]
  CBC and serum chemistry results: within the normal range
  Histological analysis of all major organs: no abnormalities
[4]; 100 mg/kg
  Observable signs of toxicity: No signs of toxicity were observed
[4]; 250 mg/kg
  Observable signs of toxicity: Minor signs of toxicity
[5]; 100 mg/kg
  Plasma Concentration: 19.9 ± 5.4 µM
[5]; 100 mg/kg, 2 h
  Plasma Concentration: 49.2 ± 4.7 µM
[5]; 250 mg/kg
  Plasma Concentration: 36.1 ± 16.7 µM

## CCOc1ccc2cc(-c3nn(CC4CC4)c(N)c3C(N)=O)ccc2c1 [Compound 27, 5-amino-1-(cyclopropylmethyl)-3-(6-ethoxynaphthalen-2-yl)-1H-pyrazole-4-carboxamide]
[1]
  Fecal concentration from 25 mg/kg dose: 54 µM
[2]; IFN-γ KO mice
  Efficacy (reduction in oocyst shedding / infection), in words: Failed efficacy

## CCOc1ccc2cc(-c3nn(C(C)CCO)c(N)c3C(N)=O)cnc2c1 (centres unmarked) [Compound 7, 5-amino-3-(7-ethoxyquinolin-3-yl)-1-(4-hydroxybutan-2-yl)-1H-pyrazole-4-carboxamide]
[1]
  Fecal concentration from 25 mg/kg dose: 1.1 µM
[2]; IFN-γ KO mice
  Efficacy (reduction in oocyst shedding / infection), in words: significant reduction in oocyst shedding

## CC(C)(CO)n1nc(-c2ccc3cc(OC4CC4)ccc3c2)c(C(N)=O)c1N [Compound 24, 5-amino-3-(6-cyclopropoxynaphthalen-2-yl)-1-(1-hydroxy-2-methylpropan-2-yl)-1H-pyrazole-4-carboxamide]
[1]
  Fecal concentration from 25 mg/kg dose: 3.5 µM
[2]; IFN-γ KO mice
  Efficacy (reduction in oocyst shedding / infection), in words: significant reduction in oocyst shedding
[6]
  Liabilities: in vivo cardiovascular: In vivo cardiovascular liabilities (data not shown)

## CCOc1ccc2cc(-c3nn(C(C)(C)C)c(N)c3C(N)=O)cnc2c1 [BKI 1517]
[7]
  hERG inhibition signal in vitro: did not have significant in vitro hERG inhibition signal

## CCOc1ccc2cc(-c3nn(CC4CCN(C)CC4)c4ncnc(N)c34)ccc2c1 [BKI 1294]
[7]
  hERG activity in vitro: has shown activity against the human ether-á-go-go related gene (hERG) in vitro
